System: lipase
Assay: Resistance to hydrolytic activity of lipases (thin-layer chromatography)
Format: in vitro ADME
Conditions: 10 U of lipase, 30 minutes, 37° C.
Experimental: OAG (15 μmol) and N,N-diethanololeamide were subjected (+) or not (−) to exposure to 10 U of lipase for 30 minutes at 37° C. Following the incubation, the lipid species were extracted from the samples before being separated by thin-layer chromatography.

## CCCCCCCC/C=C\CCCCCCCC(=O)OC[C@H](CO)OC(C)=O [OAG, 1-oleoyl-2-acetyl-sn-glycerol]
  Hydrolysis by lipases: unlike OAG

— US10231985B2, “Compounds and compositions comprising such compounds for the prevention or treatment of dyslipidaemias” (CENTRE NATIONAL DE LA RECHERCHE SCIENTIFIQUE, priority 2013, dated 2019)
